Experimental data published in article PMC3169410 (Acta Crystallographica Section F: Structural Biology and …, 2011).
Like-named read-outs stand apart in the source and are kept apart here.

Target: T1, BrabA.11339.a (Brucella abortus, UniProt Q2YQ74)
T1 construct: gene BAB1_1016
Conditions: Mn2+ dinuclear active site at dimer interface

T1 sequence (Q2YQ74 2-272 limits assumed): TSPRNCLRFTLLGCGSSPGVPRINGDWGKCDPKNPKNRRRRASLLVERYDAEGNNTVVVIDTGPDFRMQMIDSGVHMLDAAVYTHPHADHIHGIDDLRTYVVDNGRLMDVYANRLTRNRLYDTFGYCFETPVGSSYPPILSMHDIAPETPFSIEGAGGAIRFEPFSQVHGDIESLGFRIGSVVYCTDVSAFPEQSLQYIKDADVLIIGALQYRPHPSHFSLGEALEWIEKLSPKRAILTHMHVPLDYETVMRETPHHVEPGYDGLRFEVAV

Row | Compound | X-ray crystallography (AMP found in cocrystals grown with 1 mM AMPPNP and 2 mM MgCl2 (1.7 A and 1.6 A)) | X-ray crystallography (GMP copurified from E. coli, partially occupied (3md7, 1.27 A), full density in cocrystal with 1 mM GMPPNP and 2 mM MgCl2 (3py6, 1.7 A))
1 | Nc1ncnc2c1ncn2[C@@H]1O[C@H](COP(=O)(O)O)[C@@H](O)[C@H]1O [AMP] | very solid electron density could be observed for GMP and AMP, respectively | –
2 | Nc1nc2c(ncn2[C@@H]2O[C@H](COP(=O)(O)O)[C@@H](O)[C@H]2O)c(=O)[nH]1 [GMP] | – | In the native structure, a partially occupied GMP molecule can be observed in the immediate proximity
